Laboratory results from the NIST ThermoML archive (doi:10.1021/je5007407).
“And” between values parts separate entries of the source, which are not always exact repeats. Identical values can stand only once. Numbers after ± are expanded uncertainties.

Experiment: xn = mol fraction of the nth substance listed
Details: Gas, Frequency=2 MHz, Pulse-echo method

CCC [propane] + O=C=O
Details | speed of sound
248.59 K, 8020 kPa, x2 = 0.9981 | 802.3 ± 1.1 m/s
248.59 K, 8030 kPa, x2 = 0.9981 | 802.3 ± 1.1 m/s
248.59 K, 14980 kPa, x2 = 0.9981 | 856.8 ± 1 m/s
248.59 K, 24990 kPa, x2 = 0.9981 | 923 ± 1 m/s
248.59 K, 50040 kPa, x2 = 0.9981 | 1051.1 ± 1 m/s
248.59 K, 74970 kPa, x2 = 0.9981 | 1149.9 ± 1 m/s
248.59 K, 100010 kPa, x2 = 0.9981 | 1233.1 ± 1.1 m/s
248.59 K, 124970 kPa, x2 = 0.9981 | 1303.8 ± 1.1 m/s
248.59 K, 150040 kPa, x2 = 0.9981 | 1367.4 ± 1.2 m/s
248.88 K, 8270 kPa, x2 = 0.9376 | 799.4 ± 1.1 m/s
248.88 K, 15030 kPa, x2 = 0.9376 | 855.4 ± 1.1 m/s
248.88 K, 25030 kPa, x2 = 0.9376 | 924.8 ± 1 m/s
248.88 K, 49910 kPa, x2 = 0.9376 | 1056.8 ± 1 m/s
248.88 K, 75000 kPa, x2 = 0.9376 | 1159.3 ± 1.1 m/s
248.88 K, 100010 kPa, x2 = 0.9376 | 1246.2 ± 1.1 m/s
248.88 K, 125000 kPa, x2 = 0.9376 | 1320.1 ± 1.1 m/s
248.88 K, 149990 kPa, x2 = 0.9376 | 1385.8 ± 1.2 m/s
248.88 K, 174980 kPa, x2 = 0.9376 | 1447.1 ± 1.2 m/s
249.03 K, 7920 kPa, x2 = 0.9683 | 797.2 ± 1.1 m/s and 796.4 ± 1.1 m/s
249.03 K, 14790 kPa, x2 = 0.9683 | 852.8 ± 1.1 m/s
249.03 K, 25010 kPa, x2 = 0.9683 | 922.3 ± 1 m/s
249.03 K, 49980 kPa, x2 = 0.9683 | 1052.6 ± 1 m/s
249.03 K, 75760 kPa, x2 = 0.9683 | 1155.3 ± 1.1 m/s
249.03 K, 100410 kPa, x2 = 0.9683 | 1239.6 ± 1.1 m/s
249.03 K, 125280 kPa, x2 = 0.9683 | 1312.1 ± 1.1 m/s
249.03 K, 150010 kPa, x2 = 0.9683 | 1377.4 ± 1.2 m/s
251.21 K, 8050 kPa, x2 = 0.9907 | 786.8 ± 1.1 m/s
251.21 K, 8120 kPa, x2 = 0.9907 | 787.6 ± 1.1 m/s
251.21 K, 15010 kPa, x2 = 0.9907 | 844.2 ± 1.1 m/s
251.21 K, 25270 kPa, x2 = 0.9907 | 913.8 ± 1 m/s
251.21 K, 50770 kPa, x2 = 0.9907 | 1045.7 ± 1 m/s
251.21 K, 75170 kPa, x2 = 0.9907 | 1143.2 ± 1 m/s
251.21 K, 101430 kPa, x2 = 0.9907 | 1230.8 ± 1.1 m/s
251.21 K, 124940 kPa, x2 = 0.9907 | 1299.1 ± 1.1 m/s
251.21 K, 150910 kPa, x2 = 0.9907 | 1366.3 ± 1.2 m/s
273.25 K, 8170 kPa, x2 = 0.9376 | 614.5 ± 1.5 m/s
273.25 K, 8180 kPa, x2 = 0.9376 | 614.8 ± 1.5 m/s
273.25 K, 15190 kPa, x2 = 0.9376 | 699.7 ± 1.2 m/s
273.25 K, 24920 kPa, x2 = 0.9376 | 787.4 ± 1 m/s
273.25 K, 50000 kPa, x2 = 0.9376 | 946.5 ± 1 m/s
273.25 K, 75020 kPa, x2 = 0.9376 | 1062.2 ± 1 m/s
273.25 K, 100040 kPa, x2 = 0.9376 | 1155.2 ± 1 m/s
273.25 K, 125010 kPa, x2 = 0.9376 | 1236.3 ± 1.1 m/s
273.25 K, 150000 kPa, x2 = 0.9376 | 1305.4 ± 1.1 m/s
273.25 K, 175050 kPa, x2 = 0.9376 | 1369.6 ± 1.2 m/s
273.25 K, 200000 kPa, x2 = 0.9376 | 1428.5 ± 1.2 m/s
273.34 K, 8010 kPa, x2 = 0.9683 | 610.5 ± 1.3 m/s and 610.9 ± 1.3 m/s
273.34 K, 14920 kPa, x2 = 0.9683 | 694.4 ± 1.2 m/s
273.34 K, 25000 kPa, x2 = 0.9683 | 785 ± 1 m/s
273.34 K, 50050 kPa, x2 = 0.9683 | 942.8 ± 1 m/s
273.34 K, 75530 kPa, x2 = 0.9683 | 1058.9 ± 1 m/s
273.34 K, 100060 kPa, x2 = 0.9683 | 1149.4 ± 1 m/s
273.34 K, 125060 kPa, x2 = 0.9683 | 1229.3 ± 1.1 m/s
273.34 K, 148510 kPa, x2 = 0.9683 | 1293.7 ± 1.1 m/s
273.34 K, 175030 kPa, x2 = 0.9683 | 1360.3 ± 1.2 m/s
273.34 K, 200040 kPa, x2 = 0.9683 | 1417.3 ± 1.2 m/s
273.39 K, 8050 kPa, x2 = 0.9907 | 613.9 ± 1.3 m/s
273.39 K, 8070 kPa, x2 = 0.9907 | 614 ± 1.3 m/s
273.39 K, 15140 kPa, x2 = 0.9907 | 698.1 ± 1.2 m/s
273.39 K, 25280 kPa, x2 = 0.9907 | 787.2 ± 1 m/s
273.39 K, 50080 kPa, x2 = 0.9907 | 941.2 ± 1 m/s
273.39 K, 75540 kPa, x2 = 0.9907 | 1055.9 ± 1 m/s
273.39 K, 100080 kPa, x2 = 0.9907 | 1145.5 ± 1 m/s
273.39 K, 125360 kPa, x2 = 0.9907 | 1225.5 ± 1.1 m/s
273.39 K, 150170 kPa, x2 = 0.9907 | 1292.3 ± 1.1 m/s
273.39 K, 174970 kPa, x2 = 0.9907 | 1354.8 ± 1.2 m/s
273.39 K, 199910 kPa, x2 = 0.9907 | 1410.8 ± 1.2 m/s
273.41 K, 15200 kPa, x2 = 0.9981 | 699 ± 1.1 m/s
273.41 K, 15230 kPa, x2 = 0.9981 | 699 ± 1.1 m/s
273.41 K, 25030 kPa, x2 = 0.9981 | 785.6 ± 1 m/s
273.41 K, 50020 kPa, x2 = 0.9981 | 939.4 ± 1 m/s
273.41 K, 75010 kPa, x2 = 0.9981 | 1052.3 ± 1 m/s
273.41 K, 100020 kPa, x2 = 0.9981 | 1143.6 ± 1 m/s
273.41 K, 124950 kPa, x2 = 0.9981 | 1220.2 ± 1.1 m/s
273.41 K, 150010 kPa, x2 = 0.9981 | 1288.3 ± 1.1 m/s
273.41 K, 174990 kPa, x2 = 0.9981 | 1349.1 ± 1.2 m/s
273.41 K, 200000 kPa, x2 = 0.9981 | 1404.5 ± 1.2 m/s
298.13 K, 25110 kPa, x2 = 0.9907 | 654.1 ± 0.9 m/s
298.13 K, 25180 kPa, x2 = 0.9907 | 653.9 ± 0.9 m/s
298.13 K, 50020 kPa, x2 = 0.9907 | 837.8 ± 1 m/s
298.13 K, 50040 kPa, x2 = 0.9981 | 837.4 ± 0.9 m/s and 837.3 ± 0.9 m/s
298.13 K, 74940 kPa, x2 = 0.9981 | 962.5 ± 0.9 m/s
298.13 K, 75230 kPa, x2 = 0.9907 | 965 ± 1 m/s
298.13 K, 100020 kPa, x2 = 0.9981 | 1061.9 ± 1 m/s
298.13 K, 100100 kPa, x2 = 0.9907 | 1064 ± 1 m/s
298.13 K, 124970 kPa, x2 = 0.9907 | 1147.9 ± 1 m/s
298.13 K, 125020 kPa, x2 = 0.9981 | 1145.5 ± 1 m/s
298.13 K, 149790 kPa, x2 = 0.9907 | 1220.2 ± 1.1 m/s
298.13 K, 150010 kPa, x2 = 0.9981 | 1219.2 ± 1.1 m/s
298.13 K, 174530 kPa, x2 = 0.9907 | 1285.6 ± 1.1 m/s
298.13 K, 174980 kPa, x2 = 0.9981 | 1285.5 ± 1.1 m/s
298.13 K, 200010 kPa, x2 = 0.9981 | 1346.1 ± 1.2 m/s
298.13 K, 200530 kPa, x2 = 0.9907 | 1346.2 ± 1.2 m/s
298.14 K, 14950 kPa, x2 = 0.9683 | 531.8 ± 1.3 m/s
298.14 K, 14960 kPa, x2 = 0.9683 | 532.2 ± 1.3 m/s
298.14 K, 24980 kPa, x2 = 0.9683 | 654.5 ± 1 m/s
298.14 K, 50050 kPa, x2 = 0.9683 | 841.6 ± 1 m/s
298.14 K, 74950 kPa, x2 = 0.9683 | 969 ± 1 m/s
298.14 K, 100060 kPa, x2 = 0.9683 | 1070 ± 1 m/s
298.14 K, 125000 kPa, x2 = 0.9683 | 1154.1 ± 1 m/s
298.14 K, 150290 kPa, x2 = 0.9683 | 1228.9 ± 1.1 m/s
298.14 K, 175030 kPa, x2 = 0.9683 | 1294.1 ± 1.1 m/s
298.14 K, 200020 kPa, x2 = 0.9683 | 1354.1 ± 1.2 m/s
298.18 K, 8210 kPa, x2 = 0.9376 | 388.5 ± 2.4 m/s
298.18 K, 15120 kPa, x2 = 0.9376 | 538.7 ± 1.7 m/s and 538.6 ± 1.7 m/s
298.18 K, 24990 kPa, x2 = 0.9376 | 659 ± 1 m/s
298.18 K, 49980 kPa, x2 = 0.9376 | 846.6 ± 1 m/s
298.18 K, 75090 kPa, x2 = 0.9376 | 975.1 ± 1 m/s
